Experimental data taken from the supplement of paper PMC10331698.
± gives the standard deviation of the averaged measurements.

Tests used:
Assay in all cases: level (log10 ratio to DMSO vehicle control); higher = higher biomarker level / cell amount than vehicle control
[1] = compound: OCCC(F)(F)C(F)(F)C(F)(F)C(F)(F)C(F)(F)C(F)(F)F [6:2 Fluorotelomer alcohol]; details: in DMSO
Description: (§1)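 BioMAP Diversity Plus panel of 12 human primary cell co-culture systems (3C, 4H, LPS, SAg, BT, BF4T, BE3C, CASM3C, HDF3CGF, KF3CT, MyoF, Mphg). Compounds were added 1 h before stimulation and left for 24 h (MyoF 48 h; BT 72 h for soluble read-outs or 6 d for IgG). Biomarkers were read by ELISA, cytotoxicity by SRB, PBMC viability and proliferation by Alamar Blue. Each well value was divided by the mean of 8 DMSO control wells on the same plate and log10 transformed; duplicate blinded samples were tested at 4 concentrations.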

[2] = compound: COC(=O)CCC(F)(F)C(F)(F)C(F)(F)C(F)(F)F [Methyl 2H,2H,3H,3H-perfluoroheptanoate]; details: in DMSO
Description: as §1

[3] = compound: NCC(F)(F)C(F)(F)C(F)(F)C(F)(F)C(F)(F)C(F)(F)C(F)(F)F [1H,1H-Perfluorooctylamine]; details: in DMSO
Description: as §1

[4] = compound: FC(F)C(F)(F)COCC1CO1 [((2,2,3,3-Tetrafluoropropoxy)methyl)oxirane]; details: in DMSO
Description: as §1

[5] = compound: O=C(O)C(F)(F)C(F)(F)C(F)(F)C(F)(F)C(F)(F)C(F)(F)C(F)(F)C(F)(F)C(F)(F)F [Perfluorodecanoic acid]; details: in DMSO
Description: as §1

[6] = compound: O=C(O)C(F)(F)C(F)(F)C(F)(F)F [Perfluorobutanoic acid]; details: in DMSO
Description: as §1

[7] = compound: OCCCC(F)(F)C(F)(F)C(F)(F)C(F)(F)C(F)(F)C(F)(F)C(F)(F)F [7:3 Fluorotelomer alcohol]; details: 6700 nM; in DMSO
Description: as §1

HDF3CGF:EGFR
level (log10) ([1]; 6700 nM): 0.0005 ± 0.012
level (log10) ([1]; 20000 nM): 0.006 ± 0.0099
level (log10) ([2]; 6700 nM): -0.0045 ± 0.0078
level (log10) ([2]; 20000 nM): 0.0105 ± 0.029
level (log10) ([2]; 60000 nM): -0.0055 ± 0.053
level (log10) ([3]; 6700 nM): -0.039 ± 0.047
level (log10) ([3]; 20000 nM): -0.047 ± 0.073
level (log10) ([3]; 60000 nM): -0.034 ± 0.086
level (log10) ([4]; 6700 nM): 0.012 ± 0.014
level (log10) ([4]; 20000 nM): 0.0065 ± 0.005
level (log10) ([4]; 60000 nM): 0.029 ± 0.041
level (log10) ([5]; 6700 nM): -0.075 ± 0.054
level (log10) ([5]; 20000 nM): -0.195 ± 0.026
level (log10) ([6]; 6700 nM): -0.004 ± 0.041
level (log10) ([6]; 20000 nM): -0.0155 ± 0.025
level (log10) ([6]; 60000 nM): 0.012 ± 0.0057
level (log10) [7]: -0.005 ± 0.12

MyoF:Decorin
level (log10) ([1]; 6700 nM): -0.0055 ± 0.0021
level (log10) ([1]; 20000 nM): 0.0085 ± 0.011
level (log10) ([2]; 6700 nM): -0.001 ± 0.013
level (log10) ([2]; 20000 nM): 0.015 ± 0.0028
level (log10) ([2]; 60000 nM): 0.0175 ± 0.052
level (log10) ([3]; 6700 nM): -0.016 ± 0.011
level (log10) ([3]; 20000 nM): -0.025 ± 0.017
level (log10) ([3]; 60000 nM): -0.027 ± 0.0099
level (log10) ([4]; 6700 nM): -0.0065 ± 0.0035
level (log10) ([4]; 20000 nM): -0.007 ± 0.0071
level (log10) ([4]; 60000 nM): 0.0075 ± 0.012
level (log10) ([5]; 6700 nM): 0.0055 ± 0.0064
level (log10) ([5]; 20000 nM): -0.071 ± 0.018
level (log10) ([6]; 6700 nM): -0.013 ± 0.0014
level (log10) ([6]; 20000 nM): -0.0105 ± 0.039
level (log10) ([6]; 60000 nM): -0.0025 ± 0.00071
level (log10) [7]: 0.0355 ± 0.059

KF3CT:SRB
level (log10) ([1]; 6700 nM): -0.0085 ± 0.0078
level (log10) ([1]; 20000 nM): -0.0225 ± 0.005
level (log10) ([2]; 6700 nM): -0.018 ± 0.016
level (log10) ([2]; 20000 nM): -0.0055 ± 0.005
level (log10) ([2]; 60000 nM): 0 ± 0.018
level (log10) ([3]; 6700 nM): -0.01 ± 0.011
level (log10) ([3]; 20000 nM): -0.0065 ± 0.013
level (log10) ([3]; 60000 nM): 0.0065 ± 0.035
level (log10) ([4]; 6700 nM): -0.0085 ± 0.0035
level (log10) ([4]; 20000 nM): -0.0055 ± 0.0092
level (log10) ([4]; 60000 nM): 0.012 ± 0.034
level (log10) ([5]; 6700 nM): -0.0325 ± 0.005
level (log10) ([5]; 20000 nM): -0.036 ± 0.0085
level (log10) ([6]; 6700 nM): -0.008 ± 0.0042
level (log10) ([6]; 20000 nM): -0.0005 ± 0.00071
level (log10) ([6]; 60000 nM): 0.006 ± 0.018
level (log10) [7]: -0.002 ± 0.0071

MyoF:alpha-SM Actin
level (log10) ([1]; 6700 nM): -0.001 ± 0.018
level (log10) ([1]; 20000 nM): 0.0095 ± 0.026
level (log10) ([2]; 6700 nM): -0.009 ± 0.024
level (log10) ([2]; 20000 nM): -0.007 ± 0.02
level (log10) ([2]; 60000 nM): -0.0035 ± 0.04
level (log10) ([3]; 6700 nM): -0.017 ± 0.075
level (log10) ([3]; 20000 nM): 0.0285 ± 0.0078
level (log10) ([3]; 60000 nM): 0.042
level (log10) ([4]; 6700 nM): -0.0185 ± 0.019
level (log10) ([4]; 20000 nM): 0.0015 ± 0.022
level (log10) ([4]; 60000 nM): -0.0075 ± 0.03
level (log10) ([5]; 6700 nM): 0.031 ± 0.027
level (log10) ([5]; 20000 nM): -0.04 ± 0.016
level (log10) ([6]; 6700 nM): 0.006 ± 0.037
level (log10) ([6]; 20000 nM): 0.003 ± 0.031
level (log10) ([6]; 60000 nM): 0.024 ± 0.058
level (log10) [7]: 0.0125 ± 0.0092

KF3CT:CXCL10/IP-10
level (log10) ([1]; 6700 nM): 0.0105 ± 0.0092
level (log10) ([1]; 20000 nM): 0.006 ± 0.014
level (log10) ([2]; 6700 nM): 0.005 ± 0.02
level (log10) ([2]; 20000 nM): -0.003 ± 0.0014
level (log10) ([2]; 60000 nM): -0.005 ± 0.0014
level (log10) ([3]; 6700 nM): -0.0045 ± 0.00071
level (log10) ([3]; 20000 nM): -0.0075 ± 0.011
level (log10) ([3]; 60000 nM): -0.003
level (log10) ([4]; 6700 nM): -0.002 ± 0.0028
level (log10) ([4]; 20000 nM): -0.0005 ± 0.0035
level (log10) ([4]; 60000 nM): -0.0015 ± 0.022
level (log10) ([5]; 6700 nM): -0.044 ± 0.017
level (log10) ([5]; 20000 nM): -0.134 ± 0.028
level (log10) ([6]; 6700 nM): 0.008 ± 0.0042
level (log10) ([6]; 20000 nM): -0.005 ± 0.0014
level (log10) ([6]; 60000 nM): -0.002 ± 0.0028
level (log10) [7]: 0.01 ± 0.0042

3C:CD106/VCAM-1
level (log10) ([1]; 6700 nM): 0.0025 ± 0.0092
level (log10) ([1]; 20000 nM): -0.0075 ± 0.0021
level (log10) ([2]; 6700 nM): -0.0175 ± 0.028
level (log10) ([2]; 20000 nM): -0.0125 ± 0.013
level (log10) ([2]; 60000 nM): 0.0065 ± 0.005
level (log10) ([3]; 6700 nM): -0.0035 ± 0.00071
level (log10) ([3]; 20000 nM): -0.016 ± 0.0057
level (log10) ([3]; 60000 nM): -0.005 ± 0.0099
level (log10) ([4]; 6700 nM): -0.0005 ± 0.0092
level (log10) ([4]; 20000 nM): -0.0225 ± 0.023
level (log10) ([4]; 60000 nM): -0.0125 ± 0.011
level (log10) ([5]; 6700 nM): -0.0005 ± 0.012
level (log10) ([5]; 20000 nM): -0.001 ± 0.021
level (log10) ([6]; 6700 nM): -0.002 ± 0.0028
level (log10) ([6]; 20000 nM): -0.009 ± 0.0071
level (log10) ([6]; 60000 nM): -0.0225 ± 0.011
level (log10) [7]: 0.005 ± 0.0057

KF3CT:IL-1alpha
level (log10) ([1]; 6700 nM): 0.003 ± 0.041
level (log10) ([1]; 20000 nM): -0.0085 ± 0.011
level (log10) ([2]; 6700 nM): -0.0295 ± 0.019
level (log10) ([2]; 20000 nM): -0.019 ± 0.018
level (log10) ([2]; 60000 nM): -0.0095 ± 0.029
level (log10) ([3]; 6700 nM): -0.0225 ± 0.0035
level (log10) ([3]; 20000 nM): -0.001 ± 0.013
level (log10) ([3]; 60000 nM): -0.0095 ± 0.0021
level (log10) ([4]; 6700 nM): 0.006 ± 0.011
level (log10) ([4]; 20000 nM): -0.0085 ± 0.013
level (log10) ([4]; 60000 nM): 0.0055 ± 0.039
level (log10) ([5]; 6700 nM): -0.0535 ± 0.0035
level (log10) ([5]; 20000 nM): -0.068 ± 0.0042
level (log10) ([6]; 6700 nM): -0.0085 ± 0.012
level (log10) ([6]; 20000 nM): 0.006 ± 0.062
level (log10) ([6]; 60000 nM): 0.019 ± 0.058
level (log10) [7]: -0.0135 ± 0.011

CASM3C:CD141/Thrombomodulin
level (log10) ([1]; 6700 nM): 0.0235 ± 0.0092
level (log10) ([1]; 20000 nM): 0.005 ± 0.023
level (log10) ([2]; 6700 nM): -0.042 ± 0.024
level (log10) ([2]; 20000 nM): -0.017 ± 0.048
level (log10) ([2]; 60000 nM): 0.003 ± 0.017
level (log10) ([3]; 6700 nM): -0.017 ± 0.025
level (log10) ([3]; 20000 nM): -0.0055 ± 0.005
level (log10) ([3]; 60000 nM): 0.031 ± 0.045
level (log10) ([4]; 6700 nM): -0.0315 ± 0.012
level (log10) ([4]; 20000 nM): 0.0015 ± 0.0092
level (log10) ([4]; 60000 nM): 0.0225 ± 0.033
level (log10) ([5]; 6700 nM): -0.015 ± 0.031
level (log10) ([5]; 20000 nM): -0.0125 ± 0.029
level (log10) ([6]; 6700 nM): 0.0145 ± 0.021
level (log10) ([6]; 20000 nM): 0.022 ± 0.0028
level (log10) ([6]; 60000 nM): -0.0045 ± 0.037
level (log10) [7]: 0 ± 0.0014

lMphg:CD62E/E-Selectin
level (log10) ([1]; 6700 nM): -0.0545 ± 0.011
level (log10) ([1]; 20000 nM): 0.0005 ± 0.043
level (log10) ([2]; 6700 nM): -0.004 ± 0.0028
level (log10) ([2]; 20000 nM): -0.0245 ± 0.016
level (log10) ([2]; 60000 nM): -0.0075 ± 0.018
level (log10) ([3]; 6700 nM): 0.0195 ± 0.023
level (log10) ([3]; 20000 nM): 0.0085 ± 0.015
level (log10) ([3]; 60000 nM): 0.013 ± 0.03
level (log10) ([4]; 6700 nM): -0.0155 ± 0.0064
level (log10) ([4]; 20000 nM): -0.0195 ± 0.029
level (log10) ([4]; 60000 nM): -0.035 ± 0.011
level (log10) ([5]; 6700 nM): -0.026 ± 0.0028
level (log10) ([5]; 20000 nM): -0.0135 ± 0.011
level (log10) ([6]; 6700 nM): 0.0155 ± 0.036
level (log10) ([6]; 20000 nM): 0.027 ± 0.041
level (log10) ([6]; 60000 nM): 0.0175 ± 0.023
level (log10) [7]: -0.005 ± 0.048
